Measured values taken from US6979686B1, “Substituted pyrazoles as p38 kinase inhibitors” (Pharmacia Corporation, priority 2001, dated 2005).

molecular target: T1, human p38 kinase alpha (Homo sapiens, UniProt Q16539); experiment: p38 kinase in vitro assay, phosphorylation of biotinylated PHAS-I with 32P-ATP; type: biochemical; details: @ 1.0 uM
T1 construct: GST (N, cleaved yes); made in house; host or cells: E. coli DH10B
T1 sequence (Q16539 whole entry): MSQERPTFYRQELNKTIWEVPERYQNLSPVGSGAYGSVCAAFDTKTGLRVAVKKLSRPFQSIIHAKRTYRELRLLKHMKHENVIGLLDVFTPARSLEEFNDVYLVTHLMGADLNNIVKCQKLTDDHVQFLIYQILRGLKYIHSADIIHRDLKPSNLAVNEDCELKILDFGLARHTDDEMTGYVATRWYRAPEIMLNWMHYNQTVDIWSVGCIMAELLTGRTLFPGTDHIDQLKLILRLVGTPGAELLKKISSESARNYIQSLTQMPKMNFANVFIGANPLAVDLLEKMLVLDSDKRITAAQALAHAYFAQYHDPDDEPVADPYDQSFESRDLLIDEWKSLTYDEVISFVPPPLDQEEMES

| SMILES | P38 alpha kinase % inhib @ conc. (uM) |
| --- | --- |
| CSc1cccc(NC(=O)NCCc2[nH]nc(-c3ccc(F)cc3)c2-c2ccncc2)c1 [Example B-0933] | 47.0% @ |
| CCOC(=O)C(CCSC)NC(=O)NCCc1[nH]nc(-c2ccc(F)cc2)c1-c1ccncc1 (stereo not shown) [Example B-0935] | 69.0% @ |
| CC(C)NC(=O)NCCc1[nH]nc(-c2ccc(F)cc2)c1-c1ccncc1 [Example B-0937] | 64.0% @ |
| CCCCOc1ccc(NC(=O)NCCc2[nH]nc(-c3ccc(F)cc3)c2-c2ccncc2)cc1 [Example B-0944] | 45.0% @ |
| O=C(NCCc1ccccc1)NCCc1[nH]nc(-c2ccc(F)cc2)c1-c1ccncc1 [Example B-0945] | 96.0% @ |
| CCOC(=O)CCNC(=O)NCCc1[nH]nc(-c2ccc(F)cc2)c1-c1ccncc1 [Example B-0947] | 69.0% @ |
| COc1cccc(NC(=O)NCCc2[nH]nc(-c3ccc(F)cc3)c2-c2ccncc2)c1 [Example B-0948] | 68.0% @ |
| CCOC(=O)c1ccc(NC(=O)NCCc2[nH]nc(-c3ccc(F)cc3)c2-c2ccncc2)cc1 [Example B-0949] | 90.0% @ |
| CC(=O)OCC(=O)NCCc1[nH]nc(-c2ccc(F)cc2)c1-c1ccncc1 [Example B-0981] | 62.0% @ |
| O=C(NCCc1[nH]nc(-c2ccc(F)cc2)c1-c1ccncc1)c1ccccc1I [Example B-0982] | 65.0% @ |
| CC(C)C(=O)NCCc1[nH]nc(-c2ccc(F)cc2)c1-c1ccncc1 [Example B-0983] | 75.0% @ |
| C=CCOC(=O)NCCc1[nH]nc(-c2ccc(F)cc2)c1-c1ccncc1 [Example B-0985] | 86.0% @ |
| CC(=O)NCCc1[nH]nc(-c2ccc(F)cc2)c1-c1ccncc1 [Example B-0987] | 78.0% @ |
| O=C(NCCc1[nH]nc(-c2ccc(F)cc2)c1-c1ccncc1)C1CCC1 [Example B-0988] | 72.0% @ |
| O=C(NCCc1[nH]nc(-c2ccc(F)cc2)c1-c1ccncc1)C1CC1 [Example B-0989] | 85.0% @ |
| O=C(NCCc1[nH]nc(-c2ccc(F)cc2)c1-c1ccncc1)c1ccno1 [Example B-0992] | 77.0% @ |
| CC(=O)OC(C)C(=O)NCCc1[nH]nc(-c2ccc(F)cc2)c1-c1ccncc1 (stereo not shown) [Example B-0993] | 57.0% @ |
| COCC(=O)NCCc1[nH]nc(-c2ccc(F)cc2)c1-c1ccncc1 [Example B-0994] | 55.0% @ |
| O=C(NCCc1[nH]nc(-c2ccc(F)cc2)c1-c1ccncc1)c1ccccc1C(F)(F)F [Example B-0996] | 54.0% @ |
| COc1ccc(CC(=O)NCCc2[nH]nc(-c3ccc(F)cc3)c2-c2ccncc2)cc1 [Example B-1000] | 55.0% @ |
| Cc1ccc(C(=O)NCCc2[nH]nc(-c3ccc(F)cc3)c2-c2ccncc2)cc1 [Example B-1002] | 70.0% @ |

| SMILES | P38 alpha kinase % inhib @ conc. (uM) |
| --- | --- |
| O=C(NCCc1[nH]nc(-c2ccc(F)cc2)c1-c1ccncc1)C1CCCC1 [Example B-1004] | 79.0% @ |
| O=C(NCCc1[nH]nc(-c2ccc(F)cc2)c1-c1ccncc1)c1cccnc1 [Example B-1005] | 58.0% @ |
| O=C(NCCc1[nH]nc(-c2ccc(F)cc2)c1-c1ccncc1)c1ccncc1 [Example B-1006] | 69.0% @ |
| O=C(NCCc1[nH]nc(-c2ccc(F)cc2)c1-c1ccncc1)c1ccccn1 [Example B-1007] | 52.0% @ |
| CC(Oc1ccccc1)C(=O)NCCc1[nH]nc(-c2ccc(F)cc2)c1-c1ccncc1 (stereo not shown) [Example B-1009] | 80.0% @ |
| CC(C)COC(=O)NCCc1[nH]nc(-c2ccc(F)cc2)c1-c1ccncc1 [Example B-1010] | 75.0% @ |
| Cc1ccc(S(=O)(=O)NC(Cc2ccccc2)C(=O)NCCc2[nH]nc(-c3ccc(F)cc3)c2-c2ccncc2)cc1 (stereo not shown) [Example B-1011] | 72.0% 2 |
| O=S(=O)(NCCc1[nH]nc(-c2ccc(F)cc2)c1-c1ccncc1)c1ccccc1 [Example B-1014] | 88.0% @ |
| CC(C)S(=O)(=O)NCCc1[nH]nc(-c2ccc(F)cc2)c1-c1ccncc1 [Example B-1015] | 77.0% @ |
| O=S(=O)(Cc1ccccc1)NCCc1[nH]nc(-c2ccc(F)cc2)c1-c1ccncc1 [Example B-1017] | 96.0% @ |
| O=S(=O)(NCCc1[nH]nc(-c2ccc(F)cc2)c1-c1ccncc1)c1ccc(F)cc1F [Example B-1018] | 88.0% @ |
| O=S(=O)(NCCc1[nH]nc(-c2ccc(F)cc2)c1-c1ccncc1)C(F)(F)F [Example B-1019] | 82.0% @ |
| CCCS(=O)(=O)NCCc1[nH]nc(-c2ccc(F)cc2)c1-c1ccncc1 [Example B-1021] | 82.0% @ |
| CCCCS(=O)(=O)NCCc1[nH]nc(-c2ccc(F)cc2)c1-c1ccncc1 [Example B-1022] | 84.0% @ |
| CCS(=O)(=O)NCCc1[nH]nc(-c2ccc(F)cc2)c1-c1ccncc1 [Example B-1023] | 93.0% @ |
| CS(=O)(=O)NCCc1[nH]nc(-c2ccc(F)cc2)c1-c1ccncc1 [Example B-1024] | 89.0% @ |
| COc1ccc(S(=O)(=O)NCCc2[nH]nc(-c3ccc(F)cc3)c2-c2ccncc2)cc1 [Example B-1025] | 61.0% @ |
| O=S(=O)(NCCc1[nH]nc(-c2ccc(F)cc2)c1-c1ccncc1)c1cccs1 [Example B-1026] | 87.0% @ |
| COc1ccc(S(=O)(=O)NCCc2[nH]nc(-c3ccc(F)cc3)c2-c2ccncc2)cc1OC [Example B-1028] | 70.0% @ |
| CC(C)NC(=O)NCCc1[nH]nc(-c2ccc(F)cc2)c1-c1ccncc1 [Example B-1029] | 69.0% @ |
| NC(=O)NCCc1[nH]nc(-c2ccc(F)cc2)c1-c1ccncc1 [Example B-1030] | 76.0% @ |

same assay, conditions: @ 10.0 uM

| SMILES | P38 alpha kinase % inhib @ conc. (uM) [% @] |
| --- | --- |
| COc1cc(NC(=O)NCCc2[nH]nc(-c3ccc(F)cc3)c2-c2ccncc2)cc(OC)c1OC [Example B-0979] | 56.0 |

same assay, conditions: in vitro P38-alpha kinase inhibition; read-out: P38 alpha kinase IC50

| SMILES | IC50 [nM] |
| --- | --- |
| CC(=O)OC(C)(C)C(=O)NC(Cc1ccccc1)c1[nH]nc(-c2ccc(F)cc2)c1-c1ccncc1 (stereo not shown) [Example B-0834] | 1250 |
| O=C(NC(Cc1ccccc1)c1[nH]nc(-c2ccc(F)cc2)c1-c1ccncc1)C1CCC1 (stereo not shown) [Example B-0836] | 1240 |
| O=C(NC(Cc1ccccc1)c1[nH]nc(-c2ccc(F)cc2)c1-c1ccncc1)c1cccc(Br)c1 (stereo not shown) [Example B-0838] | 3100 |
| O=C(NC(Cc1ccccc1)c1[nH]nc(-c2ccc(F)cc2)c1-c1ccncc1)c1ccc(I)cc1 (stereo not shown) [Example B-0839] | 4300 |
| O=C(NC(Cc1ccccc1)c1[nH]nc(-c2ccc(F)cc2)c1-c1ccncc1)c1ccno1 (stereo not shown) [Example B-0840] | 630 |
| COCC(=O)NC(Cc1ccccc1)c1[nH]nc(-c2ccc(F)cc2)c1-c1ccncc1 (stereo not shown) [Example B-0842] | 740 |
| O=C(NC(Cc1ccccc1)c1[nH]nc(-c2ccc(F)cc2)c1-c1ccncc1)c1ccc(F)c(F)c1F (stereo not shown) [Example B-0845] | 1780 |
| CC(C)=CC(=O)NC(Cc1ccccc1)c1[nH]nc(-c2ccc(F)cc2)c1-c1ccncc1 (stereo not shown) [Example B-0846] | 1800 |
| COc1ccc(CC(=O)NC(Cc2ccccc2)c2[nH]nc(-c3ccc(F)cc3)c2-c2ccncc2)cc1 (stereo not shown) [Example B-0848] | 1560 |
| COc1cccc(CC(=O)NC(Cc2ccccc2)c2[nH]nc(-c3ccc(F)cc3)c2-c2ccncc2)c1 (stereo not shown) [Example B-0849] | 1250 |
| Cc1ccc(C(=O)NC(Cc2ccccc2)c2[nH]nc(-c3ccc(F)cc3)c2-c2ccncc2)cc1 (stereo not shown) [Example B-0850] | 1810 |
| O=C(NC(Cc1ccccc1)c1[nH]nc(-c2ccc(F)cc2)c1-c1ccncc1)c1ccccc1 (stereo not shown) [Example B-0851] | 910 |
| O=C(NC(Cc1ccccc1)c1[nH]nc(-c2ccc(F)cc2)c1-c1ccncc1)C1CCCC1 (stereo not shown) [Example B-0852] | 1020 |
| CC(Oc1ccccc1)C(=O)NC(Cc1ccccc1)c1[nH]nc(-c2ccc(F)cc2)c1-c1ccncc1 (stereo not shown) [Example B-0857] | 6250 |
| CC(C)COC(=O)NC(Cc1ccccc1)c1[nH]nc(-c2ccc(F)cc2)c1-c1ccncc1 (stereo not shown) [Example B-0858] | 2100 |
| Cc1ccc(S(=O)(=O)NC(Cc2ccccc2)C(=O)NC(Cc2ccccc2)c2[nH]nc(-c3ccc(F)cc3)c2-c2ccncc2)cc1 (stereo not shown) [Example B-0859] | 39500 |
| CNC(=O)CCC(NC(=O)c1ccccc1I)c1[nH]nc(-c2ccc(F)cc2)c1-c1ccncc1 (stereo not shown) [Example B-0861] | 1320 |
| CNC(=O)CCC(NC(=O)c1ccc(F)cc1)c1[nH]nc(-c2ccc(F)cc2)c1-c1ccncc1 (stereo not shown) [Example B-0862] | 2150 |
| CNC(=O)CCC(NS(C)(=O)=O)c1[nH]nc(-c2ccc(F)cc2)c1-c1ccncc1 (stereo not shown) [Example B-0878] | 650 |
| CNC(=O)CCC(NC(=O)NC)c1[nH]nc(-c2ccc(F)cc2)c1-c1ccncc1 (stereo not shown) [Example B-0880] | 150 |
| CNC(=O)CCC(NC(=O)Nc1ccc(OC)cc1OC)c1[nH]nc(-c2ccc(F)cc2)c1-c1ccncc1 (stereo not shown) [Example B-0884] | 1890 |
